In patent US20200384116A1, “SELF-ASSEMBLING VERTEPORFIN AMPHIPHILES (SAVA) FOR LOCAL CANCER THERAPY” (THE JOHNS HOPKINS UNIVERSITY, priority 2016, published 2020):

What was measured:
Format in all cases: cell-based
[1] = system: patient-derived primary chordoma cell line JHC7; assay: MTT cell survival, JHC7; conditions: dose-dependent, vs controls
Protocol: (§1) Cells tested were subjected to the following protocol: Day 1: 7000 cells per well were seeded in a 96-well plate. Day 3: cells were treated with 12.5 μM of Verteporfin (treatment group) and its equivalent DMSO concentration (control group) in 200 μl of media/well. Proliferation was assessed using MTT at Day 8, 9 using the following method:
(§2) MTT stock solution (5 mg/ml) is added to each culture being assayed to equal one-tenth the original culture volume and incubated for 4 hr. At the end of the incubation period the medium is removed the converted dye is solubilized with 100% isopropanol. Absorbance of converted dye is measured at a wavelength of 570 nm.
(§3) The malignant meningioma cell lines KT21-MG1 (FIG. 7), IOMM-Lee (FIG. 8), the primary patient-derived GBM cell lines, JHGB612 and GBM1A, and a patient-derived primary chordoma cell line, JHC7 (FIG. 9) were all tested with a SAVA composition of the present invention, using the protocol of Example 3. All should significant dose-dependent effect on cell survival when compared to controls.

[2] = system: malignant meningioma cell line KT21-MG1; assay: MTT cell survival, KT21-MG1
Protocol: (§4) Cells tested were subjected to the following protocol: Day 1: 7000 cells per well were seeded in a 96-well plate. […]
as §2, §3

[3] = system: SW480, PANC-1, MDA-MD-231, MDA-MD-468 and HELA cell lines; assay: MTT proliferation assay, non-CNS tumor cell lines; conditions: 12.5 μM, 5 or 6 days, in words
Protocol: as §1, §2
The cell lines SW480 (colon adenocarcinoma), PANC-1 (pancreatic cancer), MDA-MD-231 (breast adenocarcinoma), MDA-MD-468 (metastatic breast carcinoma triple negative), and HELA (cervical carcinoma) were treated with 12.5 μM of the SAVA composition, Ver-RGDR, or DMSO (solvent control) for 5 days (FIG. 5a) or 6 days (FIG. 5b) in culture. Cell proliferation was then assessed using the MTT protocol. […] P-values: All cell lines tested at day 5 and 6 had p<0.0001 compared to their corresponding DMSO control. The results were statistically significant.

[4] = system: malignant meningioma cell line IOMM-Lee; assay: MTT cell survival, IOMM-Lee
Protocol: as §4, §2, §3

[5] = system: primary patient-derived GBM cell line JHGB612; assay: MTT cell survival, JHGB612; conditions: dose-dependent, vs controls
Protocol: as §1, §2, §3

[6] = system: primary patient-derived GBM cell line GBM1A; assay: MTT cell survival, GBM1A; conditions: dose-dependent, vs controls
Protocol: as §1, §2, §3

verteporfin
effect on cell survival and proliferation [1]: dose dependent effect on chordoma cell survival and proliferation | cell survival ([2]; 3 days of treatment): decreases cell survival | cell survival ([2]; 5 days of treatment): decreases cell survival | proliferation of non-CNS tumor cells [3]: decreases proliferation | cell survival ([4]; 3 days of treatment): decreases cell survival | cell survival ([4]; 5 days of treatment): decreases cell survival | effect on proliferation and cell survival [5]: profound dose dependent effect on glioblastoma proliferation and cell survival | effect on proliferation and cell survival [6]: profound dose dependent effect on glioblastoma proliferation and cell survival
